How the values were obtained:
HepG2 cells = assay: Cell viability (WST-1 assay), HepG2 cells; format: cell-based; conditions: Homo sapiens
Description: (§1) Human liver cancer cells of Hep3B, Huh7, HepG2 and PLC/PRF5 were cultured in DMEM supplemented with 10% FBS, 100 U/ml penicillin and 100 μg/ml streptomycin.
(§2) A lentiviral construct expressing STAT1 shRNA, p65 shRNA and LCN2 shRNA was purchased from Sigma-Aldrich. Wild-type SULF2, SULF2-N491K, wild-type ERC1, ERC1-H721Q, wild-type NTRK3, NTRK3-N522K, wild-type SHC1 and SHC1-SHC1-P55 cDNA constructs were cloned into MCS-EF1-Puro (System Biosciences, Mountain), the lentiviral vectors for cDNA expression. All lentiviral vectors were transfected into 293 TN cells (System Biosciences) using the Lipofectamine 3000 transfection reagent (Invitrogen, Waltham, Mass., USA). Two days after lentiviral plasmid transfection, particles were collected and used to infect HCC cells. The HDD cells infected with lentivirus were selected using puromycin for 1 week.
(§3) For cell proliferation analysis, 5×10^3 cells were divided into 96-well plates and cultured in DMEM containing various concentrations of anti-cancer drugs and 5% FBS for 48 hours. Cell viability was measured through WST-1 assay (Roche, Gangnam-gu, Seoul, Korea) and four repetitions of each experiment were performed at least 3 times. Cell migration analysis was performed in a 24-well Boyden chamber (8 μm pore size; Coastal; Corning Life Sciences, Lowell, Mass.), 1×10^5 cells were suspended in serum-free 0.2 ml DMEM and added to the upper chamber inlet, and the lower chamber was filled with 0.6 ml DMEM/10% fetal bovine serum. After 6 hours, the cells on the bottom of the membrane were fixed, stained and counted at ×200 magnification with four microscopes.

Huh7 cells = assay: Cell viability (WST-1 assay), Huh7 cells; format: cell-based, Human
Description: as §1, §2, §3

LCN2 mRNA = LCN2 mRNA expression by qRT-PCR in Hep3B vector, SULF2-WT and SULF2-N491K cells; format: cell-based, Human
Description: (§4) Each cell was collected using an RNeasy kit (Qiagen, Venlo, Netherlands) and total RNA was isolated. The mRNA was reverse-transcribed into cDNA using a PrimeScript RT kit (Takara, Shiga, Japan), and then PCR was conducted using the CFX96 Real-Time PCR Detection System (Bio-Rad Laboratories, Hercules, Calif., USA) equipped with SsoAdvanced Universal Supermixes (Bio-Rad). The analysis of each sample was run at least three times for each experiment, and the data for the number was reported in a relative quantity: Mean value (standard deviation) of 2^−ΔΔCT±S.D.

Hep3B cells [1] = assay: Transwell (Boyden chamber) cell migration assay, Hep3B cells; format: cell-based, Human
Description: as §3

Hep3B cells [2] = assay: Cell viability / proliferation (WST-1 assay), Hep3B cells expressing vector, SULF2-WT or SULF2-N491K; format: cell-based, Human; conditions: for cell proliferation: 0.01-10 μM
Description: as §1, §2
Then, in order to identify whether or not the SULF2 mutation changed drug susceptibility, an overexpression system for wild-type SULF2 and SULF2-N491K mutants in Hep3B cells that rarely expressed endogenous SULF2 was established (Lai J P et al., Hepatology 47: 1211-22, 2008).
as §3

[3] = tested on: Hep3B-SR, SULF2-WT-SR, HepG2-SR and Huh7-SR cells; assay: Cell viability of sorafenib-resistant (SR) liver cancer cells; format: cell-based, Human; conditions: LCN2 siRNA 24 hours, then 5 μM sorafenib 48 hours
Description: as §3
After culture for several months, the sorafenib-resistant (SR) cell lines, Vector-SR, SULF2-WT-SR and SULF2-N491K-SR were obtained.
Thus, control siRNA and siRNA for human LCN2 were purchased from Santa Cruz Biotechnology, and each cell was transfected with siRNA using a transfection reagent (Santa Cruz) according to the manufacturer's instructions.

amphiregulin mRNA = assay: Amphiregulin mRNA level by qRT-PCR in Hep3B vector, SULF2-WT and SULF2-N491K cells; format: cell-based, Human; conditions: 2 μM sorafenib, 72 hours
Description: as §4

SULF2 mRNA = SULF2 mRNA expression by qRT-PCR in HepG2 and Huh7 cells; format: cell-based, Human; conditions: sorafenib up to 10 μM for 1, 2, 4 and 12 weeks
Description: as §4

EGFR = assay: Western blotting of EGFR downstream signaling after amphiregulin treatment; format: cell-based, Human; conditions: SULF2-WT cells, amphiregulin 50 ng/ml
Description: In order to prepare total cell lysate, cells were lysed in a high-salt-content lysis buffer (20 mM Tris-HCl [pH 8.0], 1% Triton X-100, 2 mM EDTA and 1 mM phenylmethylsulfonyl fluoride), incubated on ice for 20 minutes, and centrifuged for 20 minutes to remove cell debris. A total of 20 μg of total cell lysate was used for SDS-polyacrylamide gel electrophoresis, and proteins were transferred to a nitrocellulose membrane and incubated overnight with each antibody at 4° C. The membrane was then incubated at room temperature for 1 hour with a peroxidase-conjugated secondary antibody (PIERCE, Rockford, Ill., USA), and signals were detected using a chemiluminescence detection kit (PIERCE).
Thus, in order to elucidate the mechanism by which sorafenib-mediated EGFR activation is differentially regulated between SULF2-WT and SULF2-N491K, the effect of exogenous stimulation of EGFR by treatment with recombinant human amphiregulin (rhAR) on three types of cells was compared.

`Nc1ncnc2c1c(-c1cccc(OCc3ccccc3)c1)cn2[C@H]1C[C@@H](CN2CCC2)C1` [AEW541] showed an IC50 (HepG2 cells; HepG2, HepG2 cells expressing ERC1-H721Q) of 2.63 µM and an IC50 (HepG2 cells; HepG2, HepG2 cells expressing ERC1-WT) of 4.25 µM.

`CN[C@@H](C)C(=O)N[C@H](C(=O)N1CC[C@H]2CCN(CCc3ccccc3)C[C@H]21)C1CCCCC1` [LBW242] gave an IC50 (Huh7 cells; Huh7 cells expressing SHC1-P5S) of 2.26 µM and an IC50 (Huh7 cells; Huh7 cells expressing SHC1-WT) of 4.26 µM.

`N#CC(=C(/N)Sc1ccccc1N)/C(C#N)=C(/N)Sc1ccccc1N` [MEK inhibitor] was tested, and the LCN2 expression (LCN2 mRNA; vector or SULF2-N491K cells, U0126 10 μM, 48 hours) was “did not inhibit”.

In the case of `CCN(CC)CCCCNc1ncc2cc(-c3cc(OC)cc(OC)c3)c(NC(=O)NC(C)(C)C)nc2n1` [PD173074], the cell migration (Hep3B cells [1]; vector, SULF2-WT or SULF2-N491K cells treated with PD173074) is reported as “inhibition of great migration was not found”, the cell proliferation (Hep3B cells [2]; SULF2-WT cells, 48 hours) is reported as “did not inhibit” and the cell proliferation (Hep3B cells [2]; vector and SULF2-N491K cells, 48 hours) is reported as “inhibited cell proliferation”.

`CNC(=O)c1cc(Oc2ccc(NC(=O)Nc3ccc(Cl)c(C(F)(F)F)c3)cc2)ccn1` [Sorafenib] was tested, and the “sorafenib susceptibility after LCN2 knockdown” value [3] was “restoration of sorafenib susceptibility”, the amphiregulin expression (amphiregulin mRNA) was “significantly increased” and the “SULF2 mRNA expression” value (SULF2 mRNA) was “significantly increased in a time-dependent manner”. It also gave an IC50 (Huh7 cells; Homo sapiens, Huh-7, 48 h, Huh7 cells, NT shRNA, 48 hours) of 10.2 µM, an IC50 (Huh7 cells; Homo sapiens, Huh-7, 48 h, Huh7 cells, SULF2 knockdown (SULF2 shRNA), 48 hours) of 6.17 µM and an IC50 (Huh7 cells; Homo sapiens, Huh-7, Huh7 cells expressing NTRK3-N522K) of 5.8 µM. The IC50 (Huh7 cells; Homo sapiens, Huh-7, Huh7 cells expressing NTRK3-WT) was 7.64 µM, the IC50 (Huh7 cells; Homo sapiens, Huh-7, Huh7 cells, sorafenib in combination with 200 μM OKN-007) was 5.06 µM and the “susceptibility to sorafenib with OKN-007 treatment” value (Hep3B cells [2]; Hep3B vector and SULF2-N491K cells, 48 hours) was “did not change”. The IC50 (Hep3B cells [2]; Hep3B-SULF2-WT cells) was 7.51 µM, the IC50 (Hep3B cells [2]; Homo sapiens, Hep3B, 48 h, Hep3B cells expressing wild-type SULF2, sorafenib in combination with OKN-007, 48 hours) was 3.17 µM and the IC50 (Hep3B cells [2]; Homo sapiens, Hep3B, 48 h, SULF2-WT cells with knockdown of LCN2 by shRNA) was 3.95 µM. It also gave an IC50 (Hep3B cells [2]; Homo sapiens, Hep3B, Hep3B cells expressing SULF2-N491K) of 3.54 µM, an IC50 (Hep3B cells [2]; Homo sapiens, Hep3B, Hep3B-SULF2-WT cells) of 7.51 µM and an IC50 (Hep3B cells [2]; Homo sapiens, Hep3B, Hep3B-vector cells) of 3.37 µM. For the same molecule, the IC50 (HepG2 cells; HepG2, HepG2 cells, NT shRNA) was 4.97 µM, the IC50 (HepG2 cells; HepG2, HepG2 cells, SULF2 knockdown (SULF2 shRNA)) was 2.38 µM and the IC50 (HepG2 cells; HepG2, HepG2 cells, sorafenib in combination with OKN-007) was 1.76 µM. The “LCN2 mRNA expression” value (LCN2 mRNA; SULF2-WT cells, 2 μM sorafenib, 72 hours) was “significantly induced” and the “LCN2 mRNA expression” value (LCN2 mRNA; vector and SULF2-N491K cells, 2 μM sorafenib, 72 hours) was “induced only a small amount”.

For `COc1cc2ncnc(Nc3ccc(F)c(Cl)c3)c2cc1OCCCN1CCOCC1` [gefitinib], the cell migration (Hep3B cells [1]; SULF2-WT cells compared with vector and SULF2-N491K cells) was “significantly inhibited”, the cell growth (Hep3B cells [2]; SULF2-WT cells compared with vector and SULF2-N491K cells, 48 hours) was “significantly inhibited” and the “LCN2 mRNA expression” value (LCN2 mRNA; SULF2-WT cells, 48 hours, OKN-007 200 μM, gefitinib 5 μM) was “significantly inhibited”.

B1: amphiregulin: recombinant human amphiregulin, the EGFR ligand, from R & D systems (protein, UniProt P15514 101-187, looked up)
Amphiregulin: SVRVEQVVKPPQNKTESENTSDKPKRKKKGGKNGKNRRNRKKKNPCNAEFQNFCIHGECKYIEHLEAVTCKCQQEYFGERCGEKSMK
In the case of B1, the “activation of EGFR and downstream signaling pathways including STAT1 and ERK” value (EGFR) is reported as “elevated activation” and the “p65 and LCN2 protein levels” value (EGFR) is reported as “significantly increased”.

Reference: patent US11510911B2 (AJOU UNIVERSITY INDUSTRY—ACADEMIC COOPERATION FOUNDATION, priority 2017, dated 2022)
